Converted amounts (≈) assume the structure as drawn. “Also recorded” adds a separate entry of the source.
Experiments:
[1] = tested on: P. aeruginosa strain K (PAK); test: Checkerboard assay of antibiotic combinations with COS/NO; format: cell-based, Pseudomonas aeruginosa; conditions: antibiotic in combination with COS/NO, 24 h
Method: Frozen stocks of bacteria were reconstituted in TSB (3 mL) and cultured overnight. The overnight cultures of bacteria (3 mL) were inoculated into fresh TSB (30 mL) and grown to 10^8 CFU/mL. […] Inhibition was assessed with the resazurin assay and the minimum inhibitory concentration (MIC) was defined as the lowest concentration of antibacterial agent required to prevent the reduction of resazurin (i.e., color change from blue to pink).
Mol. Pharm. 7, 2289-2296 (2010)]. Briefly, bacteria at a final concentration of 10^6 CFU/mL were incubated with an array of antimicrobial combinations in TSB for 24 h at 37° C. The highest concentration for each antimicrobial tested was 2 × MIC. […] The fractional […] concentration index (ΣFIC) was calculated using Equation 1, reported by Elion et al. [Elion, G. B., Singer, S. & Hitchings, G. H. Antagonists of Nucleic Acid Derivatives: VIII. Synergism in combinations of biochemically related antimetabolites. […] Checkerboard assays were conducted in at least duplicate for each bacterial strain and for each drug combination.
Characterization of the combinations was performed using the following criteria based on ΣFIC values: < 0.25 is highly synergistic; ≤ 0.5 is synergistic; ≤ 1 is additive; ≤ 4 is indifferent; > 4 is antagonistic.

PAK [2] = test: Nitric oxide pretreatment with planktonic bacteria; format: cell-based, Pseudomonas aeruginosa; conditions: NO-pretreatment 25% MIC 4 h
Method: After exposure, wells were serially diluted in sterile MilliQ water and spiral plated on TSA. Viability was assessed by colony counting.

PAK [3] = test: Serial passaging resistance assay; format: cell-based, Pseudomonas aeruginosa
Method: (§1) Bacteria at a final concentration of 10^6 CFU/mL in TSB were incubated with serial dilutions of COS/NO and/or tobramycin for 24 h. Growth was assessed by measuring absorbance at 600 nm. The wells that had the highest concentration of test agent and an OD600 corresponding to more than 10^8 CFU/mL were diluted to 10^6 cfu/mL in TSB and incubated with fresh solutions of COS/NO or tobramycin for 24 h. A single passage was defined as one exposure, incubation, and subsequent dilution. Bacteria were passaged for up to 70 days.

ATCC MRSA = test: Serial passaging resistance assay; format: cell-based, Methicillin-resistant S. aureus
Method: as §1

P. aeruginosa biofilms = test: Biofilm pretreatment with nitric oxide, all tested biofilms; format: cell-based; conditions: P. aeruginosa biofilms, COS/NO at 25% MBEC
Method: Bacteria were cultured to a concentration of 10^8 CFU/mL in TSB and diluted to 10^6 CFU/mL in 200 µL TSB in a 96 well plate. Plates were incubated with shaking for 3 days until a non-surface attached viscous aggregate formed that was easily separated from growth medium. Biofilms (100 µL) were removed, gently injected into PBS (200 µL) to remove loosely adhered planktonic cells, and added to a sterile 96 well plate. To the wells, PBS or test agent dissolved in PBS (100 µL) was added and incubated with shaking for 24 h. The biofilm (100 µL) was removed from the well plate, added to 900 µL sterile MilliQ water, and disrupted with pipetting and vortexing. Disrupted biofilms were serially diluted and spiral plated on TSA. Viability was assessed with colony counting. The minimum biofilm eradication concentration (MBEC) was defined as the lowest concentration of test agent required to reduce viability by 5-log (i.e., 10^8 to 10^3 CFU/mL).
The biofilm was then removed from its 96 well plate, added to a new 96 well plate containing tobramycin dissolved in PBS (100 µL), and incubated for 20 h. The biofilm was disrupted in 900 µL sterile MilliQ water with pipetting and vortexing, serially diluted, and spiral plated on TSA. Viability was assessed with colony counting.

[4] = tested on: PAK, ATCC MRSA, ATCC BCC, and AR 542; test: NPN uptake assay (outer membrane permeability); format: cell-based; conditions: exposure to COS/NO, FIG. 1
Method: The outer membrane permeability of PAK, ATCC MRSA, ATCC BCC, and AR 542 was assessed with an NPN assay modified from Helander and coworkers [Helander, I. M. & Mattila-Sandholm, T. Fluorometric assessment of Gram-negative bacterial permeabilization. J. Appl. Microbiol. 88, 213-219 (2000)]. Briefly, a stock 4560 µM NPN in acetone solution was prepared fresh each day and diluted to 456 µM in PBS pH 7.4. Bacteria were cultured to a concentration of 10^8 CFU/mL in TSB, collected via centrifugation (5,000 × g for 5 min), and resuspended in PBS. Bacteria were added to COS/NO or DMSO in 1-dram vials and incubated at 37° C. with shaking. After 10 min of incubation, a portion of the exposure solution (196 µL) was removed and added to a black well plate, and 4 µL NPN (456 µM in PBS) was added. Fluorescence was immediately measured at excitation and emission wavelengths of 350 nm and 460 nm, respectively. The background NPN fluorescence in buffer was subtracted.

| Compound | Classification (ΣFIC) [1] | ΣFIC (median fractional inhibitory concentration index) [1] | Classification (PAK [2]; antibiotic 2 µg/mL) | Log Difference in bacteria viability with vs without NO-pretreatment (PAK [2]; antibiotic 2 µg/mL) [log] | also measured |
| --- | --- | --- | --- | --- | --- |
| C[C@H]1[C@H](NC(=O)/C(=N\OC(C)(C)C(=O)O)c2csc(N)n2)C(=O)N1S(=O)(=O)O [Aztreonam] | Additive | 0.75 | Synergistic | 5.11 |  |
| CC(C)(O/N=C(\C(=O)N[C@@H]1C(=O)N2C(C(=O)[O-])=C(C[n+]3ccccc3)CS[C@H]12)c1csc(N)n1)C(=O)O [Ceftazidime] | Additive | 1 |  |  |  |
| C[C@@H](O)[C@H]1C(=O)N2C(C(=O)O)=C(S[C@@H]3CN[C@H](C(=O)N(C)C)C3)[C@H](C)[C@H]12 [Meropenem] | Synergistic | 0.5 | Synergistic | 3.22 |  |
| [N]=O [NO, nitric oxide] |  |  |  |  | MICn (PAK [3]; PAK, after n = 70 passages): 96 µg/mL; MIC (PAK [3]; Pseudomonas aeruginosa, read-out: MIC0): 96 µg/mL (≈ 3.2 mM); MICn (ATCC MRSA; ATCC MRSA, after n = 30 passages): 384 µg/mL; MIC (ATCC MRSA; Staphylococcus aureus, MRSA, read-out: MIC0): 384 µg/mL (≈ 12.8 mM); biofilm viability after NO-pretreatment alone (P. aeruginosa biofilms): does not significantly affect; also recorded: does not significantly reduce; uptake of the hydrophobic fluorophore NPN and crystal violet dye (cell permeability) [4]: increased uptake |
| Colistin | Synergistic | 0.5 |  |  | Log Difference in bacteria viability with vs without NO-pretreatment (PAK [2]; antibiotic […]): 5.13 log |
